Experimental data published in patent US20220339135A1, “COMPOSITIONS AND METHODS FOR MODULATING AN INFLAMMATORY RESPONSE” (Enzychem Lifesciences Corporation, priority 2019, published 2022).

Experiments:
[1] = tested on: ERK, p38 MAPK, JNK in THP-1 cells; assay: Gemcitabine-induced phosphorylation of ERK, p38 MAPK, JNK, western blot; format: cell-based, human; settings: inhibitor of NADPH oxidase
Protocol: Total cells were lysed on ice for 30 minutes in RIPA buffer composed of 50 mM Tris-HCl (pH 7.4), 150 mM NaCl, 2 mM EDTA, 1% NP-40, 0.5% sodium deoxycholate, 0.1% SDS, 1 mM phenylmethylsulfonyl fluoride (PMSF), 10 mM sodium fluoride, 2 mM sodium pyrophosphate, 10 mM β-glycerophosphate, 10 mM sodium orthovanadate. Membrane-and-cytoplasmic protein fractions of cultured cells were obtained with Mem-PER Plus Membrane Protein Extraction Kit (Thermo Scientific, MA, USA) according to the manufacturer's instructions. The lysates were centrifuged at 13,000 rpm for 20 minutes at 4° C. and protein concentrations were determined using the Bradford assay (Bio-Rad Laboratories). Denatured samples were mixed with a 5×SDS-PAGE loading buffer and heated to 100° C. for 15 min. The samples were separated on the 10% of SDS-PAGE gel and transferred to polyvinylidene difluoride (PVDF) membranes (Merck Millipore Corporation, MA, USA). Membranes were blocked with 5% non-fat milk in PBS (10 mM Tris-HCl, pH7.5, 150 mM NaCl) for 1 h and probed with primary antibodies against ERK1/2, phospho-ERK1/2, P38, phospho-P38, SAPK/JNK, phospho-SAPK/JNK, Na, K-ATPase, α-Tubulin, and β-actin from Cell Signaling Technology (MA, USA), Rac1 from Merck Millipore Corporation), p47phox and phospho-p47phox from Invitrogen, adenosine receptor A1 from Abcam, β arrestin-1 from Santa Cruz Technology for overnight at 4° C. The blots were washed and incubated with appropriate secondary antibodies and visualized using Pierce ECL Western Blotting Substrate (Thermo Scientific).

[2] = tested on: LPS-induced acute lung injury; assay: LPS-induced acute lung injury (ALI) in mice; format: in vivo; settings: LPS-treated mice, co-treatment
[3] = tested on: intracellular calcium in dHL-60 cells; assay: Fluo-4 calcium assay; format: cell-based, human
Protocol: Human leukemia line (HL-60) cells were differentiated (dHL-60) to neutrophil-like cells in the culture medium with the addition of 1.3% DMSO (Sigma) for 5 days in a humidified atmosphere at 37° C. without changing the medium. dHL-60 cells (2×10^5 cells/mL) were loaded with 5 μM fluo-4 AM for 45 minutes and washed three times with warmed modified (37° C.) HBSS buffer (137.93 mM NaCl, 5.33 mM KCl, 2 mM CaCl2), 1 mM MgSO4, 2.38 mM HEPES, 5.5 mM glucose, pH to 7.4). The cells were seeded on black-walled 96-well plates and then treated with vehicle (0.1% DMSO), ionomycin (5 μM; positive control) or PLAG (100 μg/mL) just before measurement. Baseline fluorescence was measured before treatment, and fluorescence was read every 20 s for 700 s using an excitation wavelength of 494 nm, an emission wavelength of 516 nm in a FlexStation 3 microplate reader (Molecular Devices). Fluorescence values were reported as F/Fo according to the calculation: [ΔF=(494 nm)f/(516 nm)f−(494 nm)0/(516 nm)0]. For studies in 0 mM external calcium, the cells were loaded as mentioned earlier. After being loaded, the cells were washed four times with calcium-free HBSS. The remainder of the study was carried out in calcium-free HBSS.
(§1) HL-60 cells were differentiated (dHL-60) to neutrophil-like cells in the culture medium with the addition of 1.3% DMSO (Sigma) for 5 days in a humidified atmosphere at 37° C. without changing the medium. dHL-60 cells (2×10^5 cells/mL) were loaded with 5 μM fluo-4 AM for 45 minutes and washed three times with warmed modified (37° C.) HBSS buffer (137.93 mM NaCl, 5.33 mM KCl, 2 mM CaCl2, 1 mM MgSO4, 2.38 mM HEPES, 5.5 mM glucose, pH to 7.4). […] Baseline fluorescence was measured before treatment, and fluorescence was read every 20 seconds for 700 seconds using an excitation wavelength of 494 nm, an emission wavelength of 516 nm in a FlexStation 3 microplate reader (Molecular Devices). Fluorescence values were reported as F/Fo according to the calculation: [ΔF=(494 nm)f/(516 nm)f−(494 nm)0/(516 nm)0]. […]
as §1, with “s” for “seconds”, “Devices).” for “Devices). Fluorescence values were reported as F/Fo according to the calculation: [ΔF=(494 nm)f/(516 nm)f−(494 nm)0/(516 nm)0].”

[4] = tested on: gemcitabine-induced neutrophil extravasation; assay: Gemcitabine-induced neutropenia mice model; format: in vivo
Protocol: Male BALB/c mice were randomly divided into 3 groups; normal control group (n=5), gemcitabine only group (n=5) and gemcitabine with PLAG group (n=5). The mice were intraperitoneally (i.p.) injected with 50 mg/kg gemcitabine to induce neutropenia. PLAG was diluted with phosphate-buffered saline (PBS) and then orally administrated at a dose of 50 or 250 mg/kg/day. The normal control group was administered PBS only during the experiment. The whole blood was collected from the orbital sinuses using capillary tubes (Kimble Chase Life Science and Research Products LLC, FL, USA) and collection tubes containing K3E-K3EDTA (Greiner Bio-One International, Germany). To obtain peritoneal cells, 5 ml of cold PBS was injected to the left side of the peritoneal wall using a 5 mL syringe, and the fluid was aspirated from the peritoneum. The collected cells were counted by complete blood count (CBC) analysis using Mindray BC-5300 auto-hematology analyzer (Shenzhen Mindray Biomedical Electronics, China). To establish a 4T1 tumor-bearing mice model, the murine 4T1 mammary carcinoma cells (1×10^5) were subcutaneously injected on the right side of the abdomen. On the 10th day after tumor injection, the mice were intraperitoneally (i.p.) injected with 50 mg/kg gemcitabine, and the next day the whole blood was collected from the orbital sinuses as mentioned above before sacrificing the animals to obtain different organs of the body for RT-PCR.
PLAG inhibits gemcitabine-induced neutrophil extravasation into the peritoneum by down-regulating the expression of adhesion molecules in normal BALB/c mice. Male BALB/c mice of 8-10 weeks of age were orally administrated with 50 or 250 mg/kg of PLAG and then were intraperitoneally injected with 50 mg/kg gemcitabine. After 24 h, blood samples were collected by retro-orbital bleeding, and the number of blood neutrophils was determined by CBC analysis. Each group contains five mice. The population of blood neutrophils was analyzed by flow cytometry. Red cell-lysed whole blood was stained with FITC-conjugated anti-Ly6G and PE-Cy7-conjugated anti-CD11b antibodies to determine the circulating neutrophil population. Ly6G+/CD11b+ cells were further stained with APC-conjugated anti-L-selectin and APC-conjugated anti-LFA-1 antibodies and were analyzed by flow cytometry to determine the expression of adhesion molecules.
The mice were intraperitoneally (i.p.) injected with 50 mg/kg gemcitabine to induce neutropenia. PLAG was diluted with phosphate-buffered saline (PBS) and then orally administrated at a dose of 50 or 250 mg/kg/day. The normal control group was administered PBS only during the experiment. At 15 h after gemcitabine treatment, the whole blood was collected from the orbital sinuses using capillary tubes (Kimble Chase Life Science and Research Products LLC, FL, USA) and collection tubes containing K3E-K3EDTA (Greiner Bio-One International, Kremsmünster, Austria). To obtain peritoneal cells, 5 ml of cold PBS was injected to the left side of the peritoneal wall using a 5 mL syringe, and the fluid was aspirated from the peritoneum. The collected cells were counted by complete blood count (CBC) analysis using Mindray BC-5300 auto-hematology analyzer (Shenzhen Mindray Biomedical Electronics, Guangdong Sheng, China).
To establish a 4T1 tumor-bearing mice model, the murine 4T1 mammary carcinoma cells (1×105) were subcutaneously injected on the right side of the abdomen. On the 10th day after tumor injection, the mice were intraperitoneally (i.p.) injected with 50 mg/kg gemcitabine, and the next day the whole blood was collected from the orbital sinuses as mentioned above before sacrificing the animals to obtain different organs of the body.

[5] = tested on: citrullinated histone H3 in dHL-60 cells; assay: Histone H3 citrullination, western blot; format: cell-based, human; settings: time-dependent
Protocol: dHL-60 cells were lysed on ice for 30 minutes in RIPA buffer composed of 50 mM Tris-HCl (pH 7.4), 150 mM NaCl, 2 mM EDTA, 1% NP-40, 0.5% sodium deoxycholate, 0.1% SDS, 1 mM phenylmethylsulfonyl fluoride (PMSF), 10 mM sodium fluoride, 2 mM sodium pyrophosphate, 10 mM β-glycerophosphate, 10 mM sodium orthovanadate. The lysates were centrifuged at 13,000 rpm for 20 minutes at 4° C. and protein concentrations were determined using the Bradford assay (Bio-Rad Laboratories). Denatured samples were mixed with a 5×SDS-PAGE loading buffer and heated to 100° C. for 15 min. The samples were separated on the 10% of SDS-PAGE gel and transferred to polyvinylidene difluoride (PVDF) membranes (Merck Millipore Corporation, MA, USA). Membranes were blocked with 5% non-fat milk in PBS (10 mM Tris-HCl, pH7.5, 150 mM NaCl) for 1 h and probed with primary antibodies against histone H3 (citrulline R2+R8+R17) from abcam (USA) and β-actin from cell signaling (USA) for overnight at 4° C. The blots were washed and incubated with appropriate secondary antibodies and visualized using Pierce™ ECL Western Blotting Substrate (Thermo Scientific).

[6] = normal BALB/c mice, 15 hours after gemcitabine 50 mg/kg i.p.

`c1ccc2c(c1)[I+]c1ccccc1-2` [DPI, diphenyleneiodonium, reference compound] was tested, and the “gemcitabine-induced phosphorylation of ERK, p38 MAPK and JNK” value [1] was “dose-dependently decreased”.

For `CCCCCC=CCC=CCCCCCCCC(=O)OC(CO)CO` [HLH, hydroxyl linoleic hydroxyl glycerol, reference compound], the “number of neutrophils in BALF” value [2] was “no effect”.

With `CCCCC/C=C\C/C=C\CCCCCCCC(=O)O` [LA, linoleic acid, reference compound] the “number of neutrophils in BALF” value [2] was “no effect”.

In the case of `CCCCCCCCCCCCCCCC(=O)O` [PA, palmitic acid, reference compound], the “number of neutrophils in BALF” value [2] is reported as “no effect”.

`COc1ccc2c(c1)CC[C@@H]1[C@@H]2CC[C@]2(C)[C@@H](NCCCCCCN3C(=O)C=CC3=O)CC[C@@H]12` [U73122, reference compound] was tested, and the “PLAG-induced intracellular calcium increase” value ([3]; PLC inhibitor, dose-dependent) was “inhibited”.

For `Nc1ccn([C@@H]2O[C@H](CO)[C@@H](O)C2(F)F)c(=O)n1` [gemcitabine, reference compound], the “mRNA expression of MIP-2 in tissues” value ([4]; 4T1 tumor-bearing mice, gemcitabine 50 mg/kg i.p.) was “increases”, the “migration of circulating neutrophils into the peritoneal cavity” value ([4]; 4T1 tumor-bearing mice, one day after gemcitabine 50 mg/kg i.p.) was “induced the migration” and the circulating neutrophils [4, 6] was “significant reduction”. The “neutrophils in the peritoneal cavity” value [4, 6] was “increase”.

In the case of `C[C@H](CCC(=O)O)C[C@H](C)C[C@H](C)C(=O)/C=C(\O)[C@H](C)C[C@H](C)C/C=C/[C@@H](C)[C@@H](O)[C@@H](C)[C@@H](O)C[C@@H]1CC[C@@](C)([C@H]2CC[C@@](C)([C@@H](C)O)O2)O1` [ionomycin, reference compound], the “histone H3 citrullination” value [5] is reported as “induced” and the “cytosolic calcium of dHL-60 cells” value ([3]; PLAG 100 μg/mL, ionomycin 5 μM) is reported as “increased”.
